Experimental data published in the supplement of paper PMC8671470.

Legend:
Conditions in all cases: 72 h
[1] = tested on: KU-812; assay: cell viability (% survival relative to DMSO control, bortezomib = 0%); higher = less cytotoxic
Summary of the method: (§1)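 After 72 h at 37 °C with 5% CO2, cell viability in 384-well plates was measured by CellTiter-Glo luminescence. The plates held compounds pre-printed at 1, 10, 100, 1000 or 10000 nM in duplicate, and cells from 10 AML and 5 CML lines seeded at densities titrated to linear growth. Percent survival is the duplicate mean, normalised to vehicle as 100% and a 10 µM positive control as 0%.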

[2] = tested on: LAMA-84; assay: as above
Summary of the method: as §1

[3] = tested on: NOMO-1; assay: as above
Summary of the method: as §1

[4] = tested on: BV-173; assay: as above
Summary of the method: as §1

[5] = tested on: MV4-11; assay: as above
Summary of the method: as §1

[6] = tested on: K-562; assay: as above
Summary of the method: as §1

[7] = tested on: KG-1; assay: as above
Summary of the method: as §1

[8] = tested on: ML-2; assay: as above
Summary of the method: as §1

[9] = tested on: KCL-22; assay: as above
Summary of the method: as §1

[10] = tested on: THP-1; assay: as above
Summary of the method: as §1

[11] = tested on: HL-60; assay: as above
Summary of the method: as §1

[12] = tested on: MOLM-13; assay: as above
Summary of the method: as §1

[13] = tested on: HL-60; assay: cell viability (% survival relative to DMSO control); higher = less cytotoxic
Summary of the method: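 For each screen, HL-60 cells in RPMI 1640 with 10% FBS carried either DMSO or 100 nM of one of three metabolic inhibitors while the full library was applied at five tenfold concentrations, 1–10,000 nM, in duplicate. Plates were 384-well and were kept 72 h at 37 °C, 5% CO2. Viability, measured by CellTiter-Glo, was normalised to wells with DMSO and with 10 μM proteasome inhibitor. Where area under the curve appears, it was fitted by four-parameter log-logistic models in drc and PharmacoGx.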

[14] = tested on: HEL
Summary of the method: (§2)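 The IC50 was derived from log-logistic dose–response fitting. Each of fifteen myeloid leukaemia cell lines, seeded in RPMI 1640 within its linear growth range, was exposed in 384-well plates to five tenfold doses (1 to 10,000 nM) in duplicate for 72 h at 37 °C and 5% CO2. Luminescent ATP viability readings were normalised to vehicle and to a positive control at 10 µM before four-parameter curve fitting.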

[15] = tested on: KU-812
Summary of the method: as §2

[16] = tested on: SHI-1
Summary of the method: as §2

[17] = tested on: LAMA-84
Summary of the method: as §2

[18] = tested on: NOMO-1
Summary of the method: as §2

[19] = tested on: Mono-Mac-6
Summary of the method: as §2

[20] = tested on: BV-173
Summary of the method: as §2

[21] = tested on: MV4-11
Summary of the method: as §2

[22] = tested on: K-562
Summary of the method: as §2

[23] = tested on: KG-1
Summary of the method: as §2

[24] = tested on: ML-2
Summary of the method: as §2

[25] = tested on: KCL-22
Summary of the method: as §2

[26] = tested on: THP-1
Summary of the method: as §2

[27] = tested on: HL-60
Summary of the method: as §2

[28] = tested on: MOLM-13
Summary of the method: as §2

COc1ccc(S(=O)(=O)N2CCN(S(=O)(=O)c3ccc4c(c3)OCCO4)CC2)cc1 [BML283]
cell viability [%]
Conditions	1 nM	10 nM	100 nM	1000 nM	10000 nM
[1]	90.3	99.5	103	108	96.5
[2]	101	93.8	100	103	106
[3]	98	95.1	94.9	102	99.7
[4]	89.9	85.8	97.5	91.7	112
[5]	103	93.6	89	94.1	101
[6]	107	95.2	97.7	92.5	98.6
[7]	92.7	105	99	109	105
[8]	102	98.6	105	106	102
[9]	106	93.3	91.1	98.1	91.2
[10]	98.5	103	99.3	98.9	103
[11]	104	97.4	85.2	120	99.9
[12]	96.4	81.7	100	113	97.8

cell viability [%], [13]
Conditions	0.001 µM	0.01 µM	0.1 µM	1 µM	10 µM
co-treatment: AZD3965 100 nM	101.4	96.5	107	104	84
co-treatment: DMSO vehicle	102	86.2	103	107	97.1
co-treatment: GSK2194069 100 nM	99.2	74.9	99.56	99.4	98.6
co-treatment: pictilisib 100 nM	105	74.7	100.2	90.1	77.4

Conditions	IC50 (cell viability) [µM]
[14]	> 10
[15]	> 10
[16]	> 10
[17]	> 10
[18]	> 10
[19]	> 10
[20]	> 10
[21]	> 10
[22]	> 10
[23]	> 10
[24]	> 10
[25]	> 10
[26]	> 10
[27]	> 10
[28]	> 10

O=c1cc(-c2ccccc2)oc2cc(O)c(O)c(O)c12 [Baicalein]
cell viability [%]
Conditions	1 nM	10 nM	100 nM	1000 nM	10000 nM
[1]	93.5	94.1	99.4	108	61.4
[2]	98.2	99.6	94.4	104	75
[3]	99.2	91.3	104	123	98.2
[4]	100	99.5	96.2	154	64.2
[5]	97.8	102	98.7	113	54
[6]	104	104	102	108	45.6
[7]	96.9	96.7	112	87.8	51
[8]	98.9	93.2	87.5	97.9	37.7
[9]	95	70.2	113	102	49.3
[10]	99.4	95.6	93.5	92.5	85.9
[11]	110	86.7	114	85.3	43
[12]	97.4	72	132	92.1	69.3

cell viability [%], [13]
Conditions	0.001 µM	0.01 µM	0.1 µM	1 µM	10 µM
co-treatment: AZD3965 100 nM	99.72	100	103	97.6	101.4
co-treatment: DMSO vehicle	102.7	102	101	98.895	102
co-treatment: GSK2194069 100 nM	97.26	102	93.5	98.1	99.8
co-treatment: pictilisib 100 nM	99.21	106	98.9	106	89.5

Conditions	IC50 (cell viability) [µM]
[14]	> 10
[15]	> 10
[16]	> 10
[17]	> 10
[18]	> 10
[19]	> 10
[20]	> 10
[21]	> 10
[22]	9.24
[23]	6.35
[24]	8.18
[25]	> 10
[26]	> 10
[27]	4.39
[28]	> 10
